{"source": "patent US20090082464A1", "about": "“EXTERNALLY MASKED NEOPENTYL SULFONYL ESTER CYCLIZATION RELEASE PRODRUGS OF ACAMPROSATE, COMPOSITIONS THEREOF, AND METHODS OF USE” (priority 2007, published 2009)", "origin": "cited, not measured here", "key": {"cocaine conditioned mice": {"system": "cocaine conditioned mice", "settings": "100 mg/kg for 3 days"}}}
{"smiles": "CC(=O)NCCCS(=O)(=O)O", "note": "[acamprosate, 3-(Acetylamino)propylsulfonic acid]", "values": [{"measurement": "steady-state plasma concentration", "setting": "doses of about 1-2 gm per day", "result": "370 to 640", "unit": "ng/mL"}, {"measurement": "time post-dose at which steady-state plasma concentration occurs", "setting": "doses of about 1-2 gm per day", "result": "3 to 8", "unit": "h"}, {"measurement": "oral bioavailability of acamprosate", "setting": "humans, oral", "result": "about 11%"}, {"measurement": "relapse-like behavior", "setting": "cocaine conditioned mice", "result": "attenuated relapse-like behavior"}]}
